Experimental data taken from ChEMBL document CHEMBL1201862, “PubChem BioAssay data set” (2004).
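Where inhibition never reached the appropriate level, the endpoint shown equals the highest concentration tested. Otherwise, values were interpolated linearly from a five-concentration, 48-hour dose response in 96-well plates. GI50 is the concentration that inhibits growth by half.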 Active and inactive are the calls of the source. Rule as the data show it: active = GI50 up to about 1.1 µM and inactive = higher.

Key:
Experiment in all cases: growth of human tumour cells (NCI), 48 h
NCI-H23 = system: NCI-H23
PC-3 = system: PC-3
SF-268 = system: SF-268
RXF 393 = system: RXF 393
HOP-92 = system: HOP-92
SK-OV-3 = system: SK-OV-3
LOX IMVI = system: LOX IMVI
CAKI-1 = system: CAKI-1
UACC-257 = system: UACC-257
UACC-62 = system: UACC-62
HT-29 = system: HT-29
SN12C = system: SN12C
COLO 205 = system: COLO 205
SK-MEL-28 = system: SK-MEL-28
MCF7 = system: MCF7
MOLT-4 = system: MOLT-4
ACHN = system: ACHN
TK-10 = system: TK-10
U-251 = system: U-251
HCC 2998 = system: HCC 2998

Row | SMILES | GI50 (NCI-H23) | GI50 (PC-3) | GI50 (SF-268) | GI50 (RXF 393) | GI50 (HOP-92) | GI50 (SK-OV-3) | GI50 (LOX IMVI) | GI50 (CAKI-1) | GI50 (UACC-257) | GI50 (UACC-62) | GI50 (HT-29) | GI50 (SN12C) | GI50 (COLO 205) | GI50 (SK-MEL-28) | GI50 (MCF7) | GI50 (MOLT-4) | GI50 (ACHN) | GI50 (TK-10) | GI50 (U-251) | GI50 (HCC 2998)
1 | CCCc1cn2c(/C=N/NC(=N)N)c(-c3ccc(Cl)c([N+](=O)[O-])c3)nc2s1 | 1.74 µM (inactive) | 1.81 µM (inactive) | 2.36 µM (inactive) | 1.68 µM (inactive) | 1.68 µM (inactive) | 1.5 µM (inactive) | 1.7 µM (inactive) | 1.82 µM (inactive) | 1.61 µM (inactive) | 1.95 µM (inactive) | 0.826 µM (active) | 1.84 µM (inactive) | 1.51 µM (inactive) | 1.64 µM (inactive) | 1.94 µM (inactive) | 0.171 µM (active) | 1.69 µM (inactive) | 1.54 µM (inactive) | 1.63 µM (inactive) | –
2 | COC(=O)CCc1cc(OC)c2oc(-c3ccc(OC)c(OC)c3)c(CO)c2c1 | > 100 µM (inactive) | > 100 µM (inactive) | > 100 µM (inactive) | – | > 100 µM (inactive) | > 100 µM (inactive) | > 100 µM (inactive) | > 100 µM (inactive) | > 100 µM (inactive) | > 100 µM (inactive) | > 100 µM (inactive) | > 100 µM (inactive) | > 100 µM (inactive) | > 100 µM (inactive) | > 100 µM (inactive) | 95.5 µM (inactive) | > 100 µM (inactive) | > 100 µM (inactive) | > 100 µM (inactive) | 1.7 µM (inactive)
3 | Cc1ccc(/C=C/C(=N/NC(=O)N/N=C(/C=C/c2ccc(C)cc2)C(C)C)C(C)C)cc1 | > 10 µM (inactive) | > 10 µM (inactive) | > 10 µM (inactive) | > 10 µM (inactive) | > 10 µM (inactive) | – | – | > 10 µM (inactive) | > 10 µM (inactive) | – | > 10 µM (inactive) | 9.77 µM (inactive) | > 10 µM (inactive) | – | > 10 µM (inactive) | > 10 µM (inactive) | > 10 µM (inactive) | > 10 µM (inactive) | > 10 µM (inactive) | > 10 µM (inactive)
4 | C=C1CC(CN2CCC(=O)NC2=O)(c2ccccc2)OC1=O (stereo not drawn) | 7.18 µM (inactive) | 16.1 µM (inactive) | 23.6 µM (inactive) | – | 1.45 µM (inactive) | 16.5 µM (inactive) | 3.75 µM (inactive) | 2.75 µM (inactive) | 8.99 µM (inactive) | 8.55 µM (inactive) | 7.71 µM (inactive) | 17.6 µM (inactive) | 2.36 µM (inactive) | 13.4 µM (inactive) | 1.64 µM (inactive) | 2.25 µM (inactive) | 9.16 µM (inactive) | 5.94 µM (inactive) | 17.7 µM (inactive) | 15 µM (inactive)
5 | O=C(NNc1cn[nH]c(=O)c1Cl)/C(=C/c1ccc2c(c1)OCO2)NC(=O)c1ccccc1 | 42.5 µM (inactive) | 61.2 µM (inactive) | – | – | > 100 µM (inactive) | > 100 µM (inactive) | 30.9 µM (inactive) | 22.9 µM (inactive) | > 100 µM (inactive) | 35.2 µM (inactive) | 41.5 µM (inactive) | 50 µM (inactive) | 46.9 µM (inactive) | 74.3 µM (inactive) | 41.5 µM (inactive) | 33.4 µM (inactive) | 59.8 µM (inactive) | 34 µM (inactive) | 53.5 µM (inactive) | 41.3 µM (inactive)
6 | O=C(O)C1CC(c2ccc(F)cc2)=Nc2ccc(F)cc2S1 (stereo not drawn) | > 100 µM (inactive) | > 100 µM (inactive) | > 100 µM (inactive) | > 100 µM (inactive) | > 100 µM (inactive) | > 100 µM (inactive) | – | > 100 µM (inactive) | > 100 µM (inactive) | > 100 µM (inactive) | > 100 µM (inactive) | > 100 µM (inactive) | > 100 µM (inactive) | > 100 µM (inactive) | > 100 µM (inactive) | > 100 µM (inactive) | > 100 µM (inactive) | > 100 µM (inactive) | > 10 µM (inactive) | > 100 µM (inactive)
7 | CN[C@@H](C)[C@H](OP(=O)(O)OC1[C@@H](O)[C@H](O)C(O)[C@H](O)[C@@H]1O)c1ccccc1 (stereo partly drawn) | > 100 µM (inactive) | > 100 µM (inactive) | > 100 µM (inactive) | – | > 100 µM (inactive) | > 100 µM (inactive) | – | > 100 µM (inactive) | > 100 µM (inactive) | > 100 µM (inactive) | > 100 µM (inactive) | > 100 µM (inactive) | > 100 µM (inactive) | > 100 µM (inactive) | > 100 µM (inactive) | > 100 µM (inactive) | > 100 µM (inactive) | > 100 µM (inactive) | > 100 µM (inactive) | > 100 µM (inactive)
